Target: T1, LDHA (Homo sapiens, UniProt P00338)
T1 construct: purified recombinant LDHA protein (CUSABIO, CSB-EP012832HU)
Experiment: SPR (Biacore 8K, LDHA immobilized on CM5 chip, steady-state analysis); supported by CETSA in SK-BR-3 cells
Format: binding
Text: SPR (Biacore 8K, LDHA immobilized on CM5 chip, steady-state analysis); supported by CETSA in SK-BR-3 cells on LDHA | using purified recombinant LDHA protein and MLN4924.

`NS(=O)(=O)OC[C@@H]1C[C@@H](n2ccc3c(N[C@H]4CCc5ccccc54)ncnc32)C[C@@H]1O` [MLN4924] showed a Kd of 35.5 µM.
